{"source": "ChEMBL document CHEMBL5104103", "about": "(J Med Chem, 2022)", "key": {"[1]": {"target": "Receptor tyrosine-protein kinase erbB-2 (Homo sapiens, UniProt P04626)", "sequence (P04626 whole entry)": "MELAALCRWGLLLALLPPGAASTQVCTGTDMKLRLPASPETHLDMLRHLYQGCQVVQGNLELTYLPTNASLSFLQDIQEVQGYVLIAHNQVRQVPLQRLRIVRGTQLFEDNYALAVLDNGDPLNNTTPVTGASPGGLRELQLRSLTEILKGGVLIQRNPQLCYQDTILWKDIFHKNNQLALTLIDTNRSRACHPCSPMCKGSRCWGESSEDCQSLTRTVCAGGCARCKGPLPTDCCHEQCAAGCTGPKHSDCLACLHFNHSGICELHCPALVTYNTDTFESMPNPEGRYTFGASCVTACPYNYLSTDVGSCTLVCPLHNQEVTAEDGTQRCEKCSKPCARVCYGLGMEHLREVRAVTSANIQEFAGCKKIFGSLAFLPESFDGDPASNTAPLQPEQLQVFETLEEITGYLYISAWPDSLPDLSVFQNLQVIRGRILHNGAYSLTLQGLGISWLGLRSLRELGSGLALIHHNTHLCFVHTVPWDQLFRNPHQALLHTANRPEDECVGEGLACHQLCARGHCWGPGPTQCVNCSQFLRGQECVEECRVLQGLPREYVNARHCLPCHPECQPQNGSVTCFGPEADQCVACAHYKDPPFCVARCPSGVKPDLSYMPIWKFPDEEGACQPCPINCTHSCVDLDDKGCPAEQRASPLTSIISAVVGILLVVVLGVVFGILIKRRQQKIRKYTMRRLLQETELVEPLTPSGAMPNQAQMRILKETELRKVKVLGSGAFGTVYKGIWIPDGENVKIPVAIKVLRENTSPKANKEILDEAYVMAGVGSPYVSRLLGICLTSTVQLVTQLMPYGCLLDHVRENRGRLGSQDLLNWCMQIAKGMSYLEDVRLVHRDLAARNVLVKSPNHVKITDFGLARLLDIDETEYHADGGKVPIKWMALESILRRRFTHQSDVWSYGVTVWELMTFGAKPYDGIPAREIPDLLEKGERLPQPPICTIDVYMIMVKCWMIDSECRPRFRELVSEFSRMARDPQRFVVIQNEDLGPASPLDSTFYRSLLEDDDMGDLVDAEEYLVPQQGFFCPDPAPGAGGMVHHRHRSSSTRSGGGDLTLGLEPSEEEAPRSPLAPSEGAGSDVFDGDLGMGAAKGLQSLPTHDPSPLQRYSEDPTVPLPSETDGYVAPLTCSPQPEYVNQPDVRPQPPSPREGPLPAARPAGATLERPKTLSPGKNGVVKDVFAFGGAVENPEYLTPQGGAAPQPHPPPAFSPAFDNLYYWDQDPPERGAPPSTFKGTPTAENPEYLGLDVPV", "assay": "Inhibition of ERBB2 (unknown origin) using peptide substrate in presence of ATP by caliper electrophoresis method"}, "[2]": {"assay": "Clearance in rat at 2 mg/kg, iv", "type": "ADME, organism-based", "conditions": "in vivo"}, "[3]": {"target": "T1, Tyrosine-protein kinase TXK (Homo sapiens, UniProt P42681)", "T1 sequence (P42681 whole entry)": "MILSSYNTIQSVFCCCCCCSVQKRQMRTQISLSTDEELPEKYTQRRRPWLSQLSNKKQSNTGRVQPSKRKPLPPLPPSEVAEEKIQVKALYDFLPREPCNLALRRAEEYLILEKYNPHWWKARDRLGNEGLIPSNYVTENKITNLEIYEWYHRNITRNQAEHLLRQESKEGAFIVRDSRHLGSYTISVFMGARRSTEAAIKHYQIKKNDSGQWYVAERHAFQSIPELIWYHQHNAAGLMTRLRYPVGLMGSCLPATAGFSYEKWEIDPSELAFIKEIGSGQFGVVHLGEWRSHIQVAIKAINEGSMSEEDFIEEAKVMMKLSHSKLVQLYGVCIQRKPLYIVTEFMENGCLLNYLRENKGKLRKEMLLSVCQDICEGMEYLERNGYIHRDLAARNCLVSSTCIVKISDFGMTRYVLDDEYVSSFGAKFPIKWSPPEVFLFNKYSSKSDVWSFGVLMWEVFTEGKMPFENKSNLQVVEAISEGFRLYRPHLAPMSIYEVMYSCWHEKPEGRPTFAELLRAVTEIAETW", "assay": "Inhibition of RLK (unknown origin) using peptide substrate in presence of ATP by caliper electrophoresis method"}, "[4]": {"target": "Tyrosine-protein kinase Blk (Homo sapiens, UniProt P51451)", "sequence (P51451 whole entry)": "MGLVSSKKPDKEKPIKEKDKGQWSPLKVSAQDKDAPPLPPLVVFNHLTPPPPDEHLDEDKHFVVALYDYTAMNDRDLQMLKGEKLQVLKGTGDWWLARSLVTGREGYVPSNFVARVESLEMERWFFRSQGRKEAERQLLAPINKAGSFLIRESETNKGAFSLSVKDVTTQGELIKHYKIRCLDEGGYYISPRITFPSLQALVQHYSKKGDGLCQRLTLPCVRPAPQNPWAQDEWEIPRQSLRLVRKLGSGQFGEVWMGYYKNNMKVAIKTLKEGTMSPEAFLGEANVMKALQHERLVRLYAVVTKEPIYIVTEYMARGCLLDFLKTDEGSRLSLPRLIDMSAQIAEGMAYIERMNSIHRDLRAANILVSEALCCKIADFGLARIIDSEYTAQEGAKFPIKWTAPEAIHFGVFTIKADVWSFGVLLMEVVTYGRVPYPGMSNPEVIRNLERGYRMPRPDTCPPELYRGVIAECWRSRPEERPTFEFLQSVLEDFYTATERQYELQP", "assay": "Inhibition of BLK (unknown origin) using peptide substrate in presence of ATP by caliper electrophoresis method"}, "[5]": {"target": "T2, Cytoplasmic tyrosine-protein kinase BMX (Homo sapiens, UniProt P51813)", "T2 sequence (P51813 whole entry)": "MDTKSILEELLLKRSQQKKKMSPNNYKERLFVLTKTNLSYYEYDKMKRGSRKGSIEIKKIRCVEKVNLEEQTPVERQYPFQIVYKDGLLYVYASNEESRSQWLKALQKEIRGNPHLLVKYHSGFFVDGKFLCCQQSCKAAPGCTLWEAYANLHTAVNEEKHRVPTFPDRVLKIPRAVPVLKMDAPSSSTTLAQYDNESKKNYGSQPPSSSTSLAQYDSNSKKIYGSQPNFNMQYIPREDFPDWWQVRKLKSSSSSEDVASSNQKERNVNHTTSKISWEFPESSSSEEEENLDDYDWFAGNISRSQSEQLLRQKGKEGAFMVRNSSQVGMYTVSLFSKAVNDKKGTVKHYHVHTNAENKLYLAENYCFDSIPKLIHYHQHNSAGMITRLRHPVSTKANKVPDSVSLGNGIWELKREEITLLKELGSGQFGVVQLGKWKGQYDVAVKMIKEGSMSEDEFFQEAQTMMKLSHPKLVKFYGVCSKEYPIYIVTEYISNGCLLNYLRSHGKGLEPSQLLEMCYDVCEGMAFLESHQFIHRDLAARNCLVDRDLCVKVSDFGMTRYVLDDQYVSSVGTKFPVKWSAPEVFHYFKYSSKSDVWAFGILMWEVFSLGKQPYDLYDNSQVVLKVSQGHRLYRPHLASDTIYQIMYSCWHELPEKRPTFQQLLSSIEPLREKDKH", "assay": "Inhibition of BMX (unknown origin) using peptide substrate in presence of ATP by caliper electrophoresis method"}, "[6]": {"target": "T3, Tyrosine-protein kinase BTK (Homo sapiens, UniProt Q06187)", "T3 sequence (Q06187 whole entry)": "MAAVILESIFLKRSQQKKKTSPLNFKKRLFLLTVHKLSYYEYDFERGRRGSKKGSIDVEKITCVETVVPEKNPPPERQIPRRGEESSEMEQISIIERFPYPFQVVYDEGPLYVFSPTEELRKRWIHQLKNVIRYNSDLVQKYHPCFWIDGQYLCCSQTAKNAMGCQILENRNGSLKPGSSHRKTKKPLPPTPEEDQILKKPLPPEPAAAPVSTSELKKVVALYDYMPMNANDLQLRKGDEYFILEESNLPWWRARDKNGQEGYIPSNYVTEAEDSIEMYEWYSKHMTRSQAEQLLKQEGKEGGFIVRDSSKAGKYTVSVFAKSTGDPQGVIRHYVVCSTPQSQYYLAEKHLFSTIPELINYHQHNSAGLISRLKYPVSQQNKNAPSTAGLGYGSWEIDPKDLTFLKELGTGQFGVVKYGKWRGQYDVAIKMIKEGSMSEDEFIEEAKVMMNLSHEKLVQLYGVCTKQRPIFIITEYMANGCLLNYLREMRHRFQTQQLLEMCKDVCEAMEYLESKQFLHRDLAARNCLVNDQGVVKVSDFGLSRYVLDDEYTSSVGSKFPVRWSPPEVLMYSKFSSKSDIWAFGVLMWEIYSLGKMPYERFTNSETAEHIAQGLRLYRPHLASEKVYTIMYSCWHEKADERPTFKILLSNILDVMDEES", "assay": "Inhibition of BTK (unknown origin) using peptide substrate in presence of ATP by caliper electrophoresis method"}, "[7]": {"target": "T3, Tyrosine-protein kinase BTK", "assay": "Inhibition of biotinylated-labeled BTK-selective probe binding to BTK in human Ramos assessed as target occupancy pretreated for 1 hr followed by probe addition measured for 18 hrs by AlphaScreen assay", "type": "cell-based"}, "[8]": {"target": "T4, Cytoplasmic tyrosine-protein kinase BMX (Homo sapiens) (UniProt P51813)", "T4 sequence (whole entry)": "T2 sequence (P51813 whole entry)", "assay": "Displacement of competitive tracer from BMX (unknown origin) assessed as target occupancy at […] preincubated for 15 mins measured for 6 hrs relative to control", "conditions": "dose 1.5 µM"}, "[9]": {"assay": "Drug concentration in plasma of collagen-induced arthritis Lewis rat model 10 mg/kg/day, po measured after 6 hrs post-collection of plasma", "type": "ADME, organism-based"}, "[10]": {"assay": "Toxicity in male Beagle dog assessed as NOAEL", "set-up": "species or system Canis lupus familiaris", "conditions": "in vivo"}, "[11]": {"target": "D(2) dopamine receptor (Homo sapiens) (UniProt P14416)", "sequence (P14416 whole entry)": "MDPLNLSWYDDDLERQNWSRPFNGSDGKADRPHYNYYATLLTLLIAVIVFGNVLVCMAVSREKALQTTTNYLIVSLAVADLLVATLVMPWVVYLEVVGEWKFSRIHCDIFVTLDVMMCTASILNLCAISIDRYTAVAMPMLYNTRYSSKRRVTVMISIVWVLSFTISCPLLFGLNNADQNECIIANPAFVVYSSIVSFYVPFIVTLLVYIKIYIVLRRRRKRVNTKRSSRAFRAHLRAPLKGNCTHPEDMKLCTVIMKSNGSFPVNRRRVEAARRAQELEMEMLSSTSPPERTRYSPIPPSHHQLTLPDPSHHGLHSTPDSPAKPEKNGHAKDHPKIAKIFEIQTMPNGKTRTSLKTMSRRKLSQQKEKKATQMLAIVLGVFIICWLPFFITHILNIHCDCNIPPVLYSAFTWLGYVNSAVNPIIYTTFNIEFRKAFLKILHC", "assay": "Displacement of [3H]methyl-spiperone from recombinant human dopamine receptor D2S at 10 uM incubated for 60 mins by radiometric scintillation assay relative to control"}, "[12]": {"target": "T5, Tyrosine-protein kinase Tec (Homo sapiens) (UniProt P42680)", "T5 sequence (whole entry)": "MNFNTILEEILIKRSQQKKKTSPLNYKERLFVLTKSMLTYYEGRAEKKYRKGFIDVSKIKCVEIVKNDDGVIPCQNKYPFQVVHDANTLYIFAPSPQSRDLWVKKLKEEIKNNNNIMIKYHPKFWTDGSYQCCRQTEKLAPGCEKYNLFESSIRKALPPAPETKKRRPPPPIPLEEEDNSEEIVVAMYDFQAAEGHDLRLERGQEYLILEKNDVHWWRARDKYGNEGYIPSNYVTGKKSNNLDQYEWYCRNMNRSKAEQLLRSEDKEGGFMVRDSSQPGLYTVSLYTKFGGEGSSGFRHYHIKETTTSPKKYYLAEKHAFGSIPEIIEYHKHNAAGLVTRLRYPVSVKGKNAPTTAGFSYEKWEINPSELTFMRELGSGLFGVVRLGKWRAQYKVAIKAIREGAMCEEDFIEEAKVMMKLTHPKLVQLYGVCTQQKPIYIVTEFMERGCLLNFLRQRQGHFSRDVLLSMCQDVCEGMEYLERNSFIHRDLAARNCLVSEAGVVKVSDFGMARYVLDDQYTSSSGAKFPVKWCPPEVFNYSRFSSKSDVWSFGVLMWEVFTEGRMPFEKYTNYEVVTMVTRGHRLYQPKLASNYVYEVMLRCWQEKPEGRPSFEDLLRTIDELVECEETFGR", "assay": "Displacement of competitive tracer from TEC (unknown origin) assessed as target occupancy at […] preincubated for 15 mins measured for 24 hrs relative to control", "conditions": "dose 1.5 µM"}, "[13]": {"assay": "Toxicity in female Beagle dog assessed as NOAEL", "set-up": "species or system Canis lupus familiaris", "conditions": "in vivo"}, "[14]": {"target": "T6, Tyrosine-protein kinase TXK (Homo sapiens) (UniProt P42681)", "T6 sequence (whole entry)": "T1 sequence (P42681 whole entry)", "assay": "Displacement of competitive tracer from RLK (unknown origin) assessed as target occupancy at […] preincubated for 15 mins measured for 1 hr relative to control", "conditions": "dose 1.5 µM"}}}
{"compound": "CN1CCN(C(C)(C)/C=C(\\C#N)C(=O)N2CCC[C@@H](n3nc(-c4ccc(Oc5ccccc5)cc4F)c4c(N)ncnc43)C2)CC1", "values": [{"measurement": "IC50", "setting": "[1]", "result": 4.35, "unit": "µM"}, {"measurement": "clearance", "setting": "[2]", "result": 119, "unit": "mL/min/kg"}, {"measurement": "IC50", "setting": "[3]", "result": 1.2, "unit": "nM"}, {"measurement": "IC50", "setting": "[4]", "result": 0.5, "unit": "nM"}, {"measurement": "IC50", "setting": "[5]", "result": 0.6, "unit": "nM"}]}
{"compound": "CC(C)(/C=C(/C#N)C(=O)N1CCC[C@@H]1Cn1nc(-c2ccc(Oc3ccccc3)cc2F)c2c(N)ncnc21)N1CCOCC1", "values": [{"measurement": "IC50", "setting": "[1]", "result": "> 5", "unit": "µM"}, {"measurement": "IC50", "setting": "[6]", "result": 72, "unit": "nM"}, {"measurement": "clearance", "setting": "[2]", "result": 120, "unit": "mL/min/kg"}, {"measurement": "IC50", "setting": "[3]", "result": 44.8, "unit": "nM"}, {"measurement": "IC50", "setting": "[4]", "result": 92, "unit": "nM"}, {"measurement": "IC50", "setting": "[7]", "result": 35.9, "unit": "nM"}, {"measurement": "IC50", "setting": "[5]", "result": 10.1, "unit": "nM"}]}
{"compound": "CC(C)(C)/C=C(\\C#N)C(=O)N1CCC[C@@H](n2nc(-c3ccc(Oc4ccccc4)cc3F)c3c(N)ncnc32)C1", "note": "[ATUZABRUTINIB]", "values": [{"measurement": "Activity", "setting": "[8]", "result": 82, "unit": "%"}, {"measurement": "concentration at 6 h", "setting": "[9]", "result": 40.2, "unit": "ng/mL"}, {"measurement": "NOAEL", "setting": "[10]", "result": 400, "unit": "mg/kg"}, {"measurement": "inhibition", "setting": "[11]", "result": "> 50", "unit": "%"}, {"measurement": "IC50", "setting": "[1]", "result": 1.08, "unit": "µM"}, {"measurement": "IC50", "setting": "[6]", "result": 1.8, "unit": "nM"}, {"measurement": "Activity", "setting": "[12]", "result": 76, "unit": "%"}, {"measurement": "NOAEL", "setting": "[13]", "result": 120, "unit": "mg/kg"}, {"measurement": "IC50", "setting": "[3]", "result": 3.4, "unit": "nM"}, {"measurement": "Activity", "setting": "[14]", "result": 88, "unit": "%"}, {"measurement": "IC50", "setting": "[4]", "result": 2.2, "unit": "nM"}, {"measurement": "IC50", "setting": "[7]", "result": 30.1, "unit": "nM"}, {"measurement": "IC50", "setting": "[5]", "result": 1.8, "unit": "nM"}]}
